Laboratory results: US20040110821A1, “GAL3 receptor antagonists for the treatment of affective disorders” (priority 2002, published 2004)
Like-named read-outs stand apart in the source and are kept apart here. Marks after values point to notes of the source that are not given here.

Key:
[1] = target: T1, human GAL2 receptor (Homo sapiens, UniProt O43603); assay: Radioligand binding at cloned human GAL2 receptor; details: pyrimidines, Tables 1-3, read-out: Ki (nM) GalR2
T1 construct: expressed in transfected cells
T1 sequence (O43603 1-387): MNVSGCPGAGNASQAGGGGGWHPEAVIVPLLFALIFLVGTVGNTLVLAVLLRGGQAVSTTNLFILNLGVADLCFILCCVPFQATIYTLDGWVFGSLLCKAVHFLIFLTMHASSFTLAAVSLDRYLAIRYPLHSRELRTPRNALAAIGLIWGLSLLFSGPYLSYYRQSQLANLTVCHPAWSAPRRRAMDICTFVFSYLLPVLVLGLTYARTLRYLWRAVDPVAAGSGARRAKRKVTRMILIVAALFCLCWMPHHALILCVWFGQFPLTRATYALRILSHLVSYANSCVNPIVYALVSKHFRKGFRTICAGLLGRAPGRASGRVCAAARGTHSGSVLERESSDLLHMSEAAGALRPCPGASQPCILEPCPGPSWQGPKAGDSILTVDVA
Protocol: (§1) The present invention provides for a method of determining the binding affinity of a GAL3 antagonist, wherein the GAL3 antagonist is dissolved in a “suitable solvent”. A “suitable solvent” means one which permits the measurement of binding affinity of the GAL3 antagonist to the human GAL3 receptor at concentrations less than 1 μM, preferably less than 100 nM. Examples of solvents include, but are not limited to, DMSO, ethanol, N,N-dimethylacetamide, or water. For indolones, the preferred solvent is 3% DMSO (final concentration in the assay). For pyrimidines, the preferred solvent is 1% ethanol/0.09% polypuronic acid F-127 (final concentration in the assay). For any other type of compounds, the preferred solvent is the solvent which permits the measurement of binding affinity of a GAL3 antagonist at the lowest concentration. Once a suitable solvent is ascertained for the binding assay of the human GAL3 receptor, the same solvent is used in assays to determine the binding affinity for instance, at the GAL1 receptor.
(§2) The binding properties of the pyrimidines of the present invention were evaluated at the cloned human galanin receptors, GAL1, GAL2, and GAL3, using protocols described herein.
(§3) The binding properties of the indolones of the present invention were evaluated at the cloned human galanin receptors, GAL1, GAL2, and GAL3, using protocols described herein.
(§4) LM(tk-) cells were stably transfected with the human GAL1 or GAL3 receptor. CHO cells were stably transfected with the human GAL2 receptor.
(§5) cDNAs for the human and rat GAL1, and human and rat GAL3 receptors were transfected with a G-418 resistant gene into the mouse fibroblast LM(tk-) cell line by a calcium phosphate transfection method (Cullen, 1967). Stably transfected cells were selected with G-418. Human and rat GAL2 receptors were similarly transfected into CHO cells.
(§6) Membranes were harvested from stably transfected LM(tk-) cells. Adherent cells were washed twice in ice-cold phosphate buffered saline (138 mM NaCl, 8.1 mM Na2HPO4, 2.5 mM KCl, 1.2 mM KH2PO4, 0.9 mM CaCl2, 0.5 mM MgCl2, pH 7.4) and lysed by sonication in ice-cold sonication buffer (20 mM Tris-HCl, 5 mM EDTA, pH 7.7). Large particles and debris were cleared by low speed centrifugation (200×g, 5 min, 4° C.). Membranes were collected from the supernatant fraction by centrifugation (32,000×g, 18 min, 4° C.), washed with ice-cold hypotonic buffer, and collected again by centrifugation (32,000×g, 18 min, 4° C.). The final membrane pellet was resuspended by sonication into a small volume of ice-cold binding buffer (−1 ml for every 5 plates: 10 mM NaCl, 20 mM HEPES, 0.22 mM KH2PO4, 1.26 mM CaCl2, 0.81 mM MgSO4, pH 7.4). Protein concentration was measured by the Bradford method (Bradford, 1976) using Bio-Rad Reagent, with bovine serum albumin as a standard. Membranes were held on ice for up to one hour and used fresh, or flash frozen and stored in liquid nitrogen. Membranes were prepared similarly from CHO cells.
(§7) Galanin Receptors: Binding assays were performed according to the following published methods: human GAL3 (PCT International Publication No. WO 98/15570), human GAL1 (PCT International Publication No. WO 95/2260) human GAL2 (PCT International Publication No. WO 97/26853).
(§8) Binding data were analyzed using nonlinear regression and statistical techniques available in the GraphPAD Prism package (San Diego, Calif.). Enzymatic assay data were derived from a standard curve of reference compound data.

[2] = target: T2, human GAL3 receptor (Homo sapiens, UniProt O60755); assay: Radioligand binding at cloned human GAL3 receptor; details: cloned human GAL3 receptor
T2 construct: expressed in transfected cells
T2 sequence (O60755 1-368): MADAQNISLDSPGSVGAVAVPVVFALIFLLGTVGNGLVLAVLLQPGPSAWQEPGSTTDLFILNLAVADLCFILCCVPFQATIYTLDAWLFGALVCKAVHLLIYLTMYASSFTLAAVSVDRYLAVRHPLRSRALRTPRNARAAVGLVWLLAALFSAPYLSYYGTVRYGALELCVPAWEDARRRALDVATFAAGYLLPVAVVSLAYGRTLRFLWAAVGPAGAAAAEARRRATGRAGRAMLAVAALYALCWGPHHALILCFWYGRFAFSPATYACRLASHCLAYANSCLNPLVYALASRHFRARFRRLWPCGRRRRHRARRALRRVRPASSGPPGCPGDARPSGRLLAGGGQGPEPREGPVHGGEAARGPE
Protocol: as §1, §2, §3, §4, §5, §6, §7, §8

[3] = target: T3, human GAL1 receptor (Homo sapiens, UniProt P47211); assay: Radioligand binding at cloned human GAL1 receptor; details: pyrimidines, Tables 1-3, read-out: Ki (nM) GalR1
T3 construct: expressed in transfected cells
T3 sequence (P47211 1-349): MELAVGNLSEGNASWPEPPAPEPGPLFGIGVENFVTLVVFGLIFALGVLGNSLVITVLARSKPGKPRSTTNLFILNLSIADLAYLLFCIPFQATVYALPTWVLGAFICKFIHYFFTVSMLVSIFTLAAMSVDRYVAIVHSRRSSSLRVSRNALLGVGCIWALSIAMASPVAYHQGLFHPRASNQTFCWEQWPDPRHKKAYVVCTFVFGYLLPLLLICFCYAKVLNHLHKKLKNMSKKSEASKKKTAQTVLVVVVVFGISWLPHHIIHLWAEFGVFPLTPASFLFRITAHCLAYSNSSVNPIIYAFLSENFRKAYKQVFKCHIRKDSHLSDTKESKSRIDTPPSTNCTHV
Protocol: as §1, §2, §3, §4, §5, §6, §7, §8

[4] = test system: Male albino Sprague-Dawley rats; assay: Rat Social Interaction Test (SIT); type: in vivo
Protocol: Rats were allowed to acclimate to the animal care facility for 5 days and were housed singly for 5 days prior to testing. Animals were handled for 5 minutes per day. The design and procedure for the Social Interaction Test was carried out as previously described by Kennett, et al. (1997). On the test day, weight matched pairs of rats (±5%), unfamiliar to each other, were given identical treatments and returned to their home cages. Animals were randomly divided into 5 treatment groups, with 5 pairs per group, and were given one of the following i.p. treatments: Example 92 (10, 30 or 100 mg/kg), vehicle (1 ml/kg) or chlordiazepoxide (5 mg/kg). Dosing was 1 hour prior to testing. Rats were subsequently placed in a white perspex test box or arena (54×37×26 cm), whose floor was divided up into 24 equal squares, for 15 minutes. An air conditioner was used to generate background noise and to keep the room at approximately 74° F. All sessions were videotaped using a JVC camcorder (model GR-SZ1, Elmwood Park, N.J.) with either TDK (HG ultimate brand) or Sony 30 minute videocassettes. All sessions were conducted between 1:00-4:30 P.M. Active social interaction, defined as grooming, sniffing, biting, boxing, wrestling, following and crawling over or under, was scored using a stopwatch (Sportsline model no. 226, 1/100 sec. discriminability). The number of episodes of rearing (animal completely raises up its body on its hind limbs), grooming (licking, biting, scratching of body), and face washing (i.e. hands are moved repeatedly over face), and number of squares crossed were scored. Passive social interaction (animals are lying beside or on top of each other) was not scored. All behaviors were assessed later by an observer who was blind as to the treatment of each pair. At the end.of each test, the box was thoroughly wiped with moistened paper towels.
Male albino Sprague-Dawley rats (Taconic Farms, N.Y.) were housed in pairs under a 12 hr light dark cycle (lights on at 0700 hrs.) with free access to food and water.
Example 92 was dissolved in 100% DMSO (Sigma Chemical Co., St. Louis, Mo.). Chlordiazepoxide (purchased from Sigma Chemical Co., St. Louis, Mo.) was dissolved in double distilled water. The vehicle consisted of 50% DMSO (v/v). All drug solutions were made up 10 minutes prior to injection and the solutions were discarded.
Example 34 was dissolved in 5% lactic acid, v/v. The vehicle consisted of 100% dimethylacetamide (DMA) and this was used to make up all drug solutions. All drug solutions were made up fresh each day and any unused solutions were discarded at the end of the test day. The volume of drug solution administered was 1 ml/kg.
The social interaction data (time interacting, rearing and squares crossed) were subjected to a randomized, one-way ANOVA and post hoc tests conducted using the Student-Newman-Keuls test. The data were subjected to a test of normality (Shapiro-Wilk test). The data were analyzed using the GBSTAT program, version 6.5 (Dynamics Microsystems, Inc., Silver Spring, Md., 1997). All data are presented as means ±S.E.M.

[5] = pyrimidines, Tables 1-3, read-out: Ki (nM) GalR3
[6] = pyrimidines, Table 3a, read-out: Ki (nM) Gal3
[7] = indolones, Table 4a, read-out: Ki (nM) Gal3

Work on `C[C@H]1CC2CC([C@@H]1Nc1cc(N(C)C)nc(Nc3ccccc3)n1)C2(C)C` (some centres unmarked) [Example 71] yielded a Ki [1] of 944 nM and a Ki [2, 5] of 72 nM.

Compound `CN(CCc1c[nH]c2ccccc12)c1nc(NCCc2ccccc2)cc(N2CCCCC2)n1` [Example 12] has a Ki [3] greater than 5000 nM, a Ki [1] of 2000 nM and a Ki [2, 5] of 322 nM.

With `CN(C)c1cc(Nc2ccc(Cl)cc2C(F)(F)F)nc(N2CCN(Cc3ccccc3)CC2)n1` [Example 239] the Ki [2, 6] was 59 nM.

In the case of `CN(C)c1cc(N[C@@H]2C[C@H]3CC[C@]2(C)C3(C)C)nc(N2CCN(Cc3ccccc3)CC2)n1` [Example 153], the Ki [2, 6] is reported as 55 nM.

Compound “N^2-[2-(1H-INDOL-3-YL)ETHYL]-N^2,N^4,N^4-TRIMETHYL-(2-NAPHTHYL)-6-(1-PIPERIDINYL)-2,4,6-PYRIMIDINETRIAMINE [Example 79]” has a Ki [3] of 3800 nM, a Ki [1] of 1660 nM and a Ki [2, 5] of 190 nM.

With `Cc1ccc(/N=C2\C(=O)N(c3ccccc3)c3ccccc32)c(Cl)c1` [Example 286] the Ki [2, 7] was 38 nM.

`CN(C)c1cc(NC23CC4CC(CC2C4)C3)nc(N2CCN(Cc3ccccc3)CC2)n1` [Example 137] was tested, and the Ki [2, 6] was 124 nM.

For `CNC1=Nc2ccc(Cl)cc2C(c2ccccc2)=[N+]([O-])C1` [Chlordiazepoxide, chlordiazepoxide, reference compound], the “Social Interaction (sec)” value ([4]; 5 mg/kg i.p., 1 hour before 15 min test, unfamiliar rats) was 188 ± 15^b sec and the “Social Interaction (sec)” value ([4]; 5 mg/kg p.o., one hour before test, unfamiliar cage mates in a familiar arena) was 122 ± 18^$ sec.

With `O=C1/C(=N\c2ccc(Oc3ccccc3)cc2)c2ccccc2N1c1ccsc1` [Example 268, 3Z)-3-[(4-PHENOXYPHENYL)IMINO]-1-(3-THIENYL)-1,3-DIHYDRO-2H-INDOL-2-ONE] the Ki [2, 7] was 57 nM.

Compound `CN(C)c1cc(Nc2ccccc2Cl)nc(N2CCN(c3ccccn3)CC2)n1` [Example 195] has a Ki [2, 6] of 388 nM.

For `O=C1/C(=N\c2ccc(-c3cccc(C(F)(F)F)c3)cc2)c2ccccc2N1c1ccccc1` [Example 305, (3Z)-1-PHENYL-3-{[3′-(TRIFLUOROMETHYL)[1,1′-BIPHENYL]-4-YL]IMINO}-1,3-DIHYDRO-2H-INDOL-2-ONE], the Ki [2, 7] was 638 nM.
